Measured values: patent US4151273A, “Increasing the absorption rate of insoluble drugs” (priority 1978, dated 1979)
Converted amounts (≈) assume the structure as drawn. “Also recorded” adds a separate entry of the source.

Columns and labels:
Type in all cases: physicochemical
[1] = Solubility of griseofulvin in water; details: 25° C., read-out: solubility of gris
[2] = Stability of gris on preparing the solid solutions (melting point, spectra, thin layer chromatography); details: following solvent or direct fusion methods
From the text: A number of tests were made to establish that the gris was not decomposed in any manner following either the solvent or the direct fusion methods of preparing the solid solutions. The melting point, the spectra of the ultra-violet, the infrared and fluorescence are all identical to those of the gris used as a starting material.

[3] = Dissolution studies involving other materials (time for 20% dissolution); details: in water
From the text: Dissolution studies were similarly made involving other materials.

[4] = Dissolution rate study of griseofulvin compositions (saturation dissolution apparatus); details: for 20% dissolution time: 5 mg gris in 500 ml water at 25°, 100 r.p.m.
Method: A recycling and automatic recording system was used for all dissolution rate studies. The dissolution rate of gris in different physical forms were run in 500 ml. distilled water in a 600 ml. beaker at room temperature.
Unless otherwise specified, samples of 80 to 200 mesh powder were transferred directly into the dissolution medium and stirred with a stainless steel paddle. The paddle, 5.5 × 2.7 cm., was placed at the center of a 500 ml. dissolution medium and rotated at a rate of 100 r.p.m. The solution was pumped by a peristatic pump (Multi-speed Transmission, model No. 6000-000, available from the Harvard Apparatus Co., Dover, Mass.) at a rate of 80 to 100 ml./min. through a glass filter stick to a 1-cm. flow cell and then back to the dissolution apparatus. The absorbance of the solution is monitored by a recording Beckman DB spectrophotometer at either the miximum peak of gris, 292 mu., or minimum absorbance, 272 mu. depending upon the concentration of gris. In the system of gris-PEG 20,000, 324 mu. was used because of possible interference of absorption by the polymer at 272 mu. The volume of the solution in the tubing of the recycling system is about 10 ml. At the flow rate used, the monitored absorbance will reach 90% of the equilibrium valve in 15 sec. Therefore, the lag time in the measurement of dissolution rate is essentially negligible. In the study of the dissolution rate at room temperature, the water is preadjusted to 25° C. The ambient temperature of the room ranged less than 2° from this temperature.
Samples of micronized gris and of gris of 100 to 200 mesh particle size distribution were also run. […] All samples were run in duplicate.
^a Five milligrams gris in 500 ml. of water at 25°.
^b Dissolution times taken from recorded absorbance readings.

Row | Compound | time to 20% dissolution [3] | 20% dissolution time [4] | other results
1 | COC1=CC(=O)C[C@@H](C)[C@]12Oc1c(Cl)c(OC)cc(OC)c1C2=O [gris, griseofulvin] |  |  | solubility [1]: 10 µg/mL (≈ 28.3 µM); decomposition of gris (in words) [2]: no additional spots were detected
2 | C[C@]12CCC(=O)C=C1CC[C@@H]1[C@@H]2CC[C@@]2(C)[C@H]1CC[C@]2(C)O [methyltestosterone] | 2 min |  | 
3 | COC1=CC(=O)C[C@@H](C)[C@]12Oc1c(Cl)c(OC)cc(OC)c1C2=O [Micronizied gris (nonwetted), griseofulvin] |  | 25.0 min | dissolution rate (in words) ([4]; compared with other gris forms, wetting with 2 ml of 0.2% polysorbate (Tween 20), micronized gris): markedly slower than that of the same powder when wetted first; also recorded: almost the same dissolution rate as the 100-200 mish gris
4 | COC1=CC(=O)C[C@@H](C)[C@]12Oc1c(Cl)c(OC)cc(OC)c1C2=O [Micronized gris (wetted), griseofulvin] |  | 2.0 min | 
5 | COC1=CC(=O)C[C@@H](C)[C@]12Oc1c(Cl)c(OC)cc(OC)c1C2=O [100-200 Mesh pure gris, griseofulvin] |  | 60.0 min | 
6 | CC(=O)OCC(=O)[C@@]1(O)CC[C@H]2[C@@H]3CCC4=CC(=O)C=C[C@]4(C)[C@H]3[C@@H](O)C[C@@]21C [prednisolone acetate] | 8 min |  | 
7 | CC(=O)OCC(=O)[C@@]1(O)CC[C@H]2[C@@H]3CCC4=CC(=O)CC[C@]4(C)[C@H]3[C@@H](O)C[C@@]21C [hydrocortisone acetate] | more than 20 minutes |  | 
8 | C[C@H]1O[C@@H](O[C@H]2[C@@H](O)C[C@H](O[C@H]3[C@@H](O)C[C@H](O[C@H]4CC[C@@]5(C)[C@H](CC[C@@H]6[C@@H]5CC[C@]5(C)[C@@H](C7=CC(=O)OC7)CC[C@]65O)C4)O[C@@H]3C)O[C@@H]2C)C[C@H](O)[C@@H]1O [microcrystalline digitoxin, digitoxin] | about 15 minutes |  | 
